# Data from ChEMBL document CHEMBL3259679, “Synthesis of novel tricyclic chromenone-based inhibitors of IRE-1 RNase activity” (J Med Chem, 2014).
# Activity calls are given as the source filed them. The calls are words filed in the database; no cut-off is given here.
# Experiments:
# [1] = system: B-cell; settings: Mus musculus, 20 uM
# [2] = system: Mino; assay: Induction of apoptosis in human Mino cells assessed as PARP cleavage at 50 uM after 72 hrs by immunoblotting analysis; format: functional, cell-based
# [3] = Upregulation of IRE-1 expression in human Jeko cells at 20 uM after 24 hrs by immunoblotting analysis; format: functional, cell-based; settings: JeKo-1
# [4] = system: JeKo-1; settings: Homo sapiens, 20 uM
# [5] = Growth inhibition of human Mino cells after 48 hrs by XTT assay; format: functional
# [6] = system: JeKo-1; assay: Induction of apoptosis in human Jeko cells assessed as PARP cleavage at 50 uM after 72 hrs by immunoblotting analysis; format: functional, cell-based
# [7] = Upregulation of IRE-1 expression in human Mino cells at 20 uM after 24 hrs by immunoblotting analysis; format: functional, cell-based
# [8] = Growth inhibition of human Jeko cells after 48 hrs by XTT assay; format: functional, JeKo-1
# [9] = system: Mino; settings: Homo sapiens, 20 uM
# [10] = system: B-cell; assay: Inhibition of XBP-1s expression in LPS-stimulated wild-type mouse B lymphocytes at 20 uM after 24 hrs by Western blotting analysis
# [11] = system: JeKo-1; assay: cells; settings: Homo sapiens, JeKo-1, 24 h
# [12] = Drug degradation after 12 hrs by LC-MS analysis; format: physicochemical
# [13] = target: Serine/threonine-protein kinase/endoribonuclease IRE1 (Homo sapiens, UniProt O75460); assay: Inhibition of human recombinant puritin-His-tagged IRE-1 RNase expressed in SF21 cells using XBP-1 RNA stem loop as substrate incubated for 30 mins prior to substrate addition measured after 2 hrs by FRET-suppression assay
# Chain of Serine/threonine-protein kinase/endoribonuclease IRE1 (O75460 whole entry): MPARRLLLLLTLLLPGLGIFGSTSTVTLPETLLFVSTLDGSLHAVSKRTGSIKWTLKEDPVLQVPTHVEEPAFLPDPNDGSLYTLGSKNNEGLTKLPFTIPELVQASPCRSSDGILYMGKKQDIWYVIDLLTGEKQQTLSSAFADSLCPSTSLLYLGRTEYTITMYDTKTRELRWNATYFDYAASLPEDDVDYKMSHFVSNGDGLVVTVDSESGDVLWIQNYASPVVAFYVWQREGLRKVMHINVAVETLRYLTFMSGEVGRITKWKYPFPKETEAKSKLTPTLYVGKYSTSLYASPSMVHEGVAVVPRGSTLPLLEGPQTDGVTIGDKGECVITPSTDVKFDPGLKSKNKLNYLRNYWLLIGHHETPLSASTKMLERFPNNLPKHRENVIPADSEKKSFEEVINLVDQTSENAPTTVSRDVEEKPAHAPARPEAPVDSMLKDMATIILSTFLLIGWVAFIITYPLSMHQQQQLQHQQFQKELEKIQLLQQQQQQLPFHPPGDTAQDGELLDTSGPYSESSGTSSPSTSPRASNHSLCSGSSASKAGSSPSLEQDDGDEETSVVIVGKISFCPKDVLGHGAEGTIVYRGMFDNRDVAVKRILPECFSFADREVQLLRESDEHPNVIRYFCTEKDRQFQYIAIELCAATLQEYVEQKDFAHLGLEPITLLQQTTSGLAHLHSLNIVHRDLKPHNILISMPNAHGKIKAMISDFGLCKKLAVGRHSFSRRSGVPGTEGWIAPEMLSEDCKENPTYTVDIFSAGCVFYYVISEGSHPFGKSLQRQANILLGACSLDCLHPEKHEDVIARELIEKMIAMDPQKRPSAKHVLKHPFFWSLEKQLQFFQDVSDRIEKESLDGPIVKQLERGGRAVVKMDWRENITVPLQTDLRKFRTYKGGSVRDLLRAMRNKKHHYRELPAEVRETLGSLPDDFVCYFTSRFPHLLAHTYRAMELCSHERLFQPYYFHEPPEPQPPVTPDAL
SMILES,inhibition [1],Activity [3],inhibition [4],Activity [7],inhibition [9],inhibition [10],other results
C=CCOC(=O)N1CCc2c(c(=O)oc3c(/C=C/C(=O)OCC)c(O)ccc23)C1,inactive,,,,,,
CN1CCc2c(c(=O)oc3c(C=O)c(O)ccc23)C1,Active,Active,Active,Active,Active,,Activity [2]: Active; GI [5]: 55 µM; Activity [6]: Active; GI [8]: 66 µM
C=CCOC(=O)N1CCc2c(c(=O)oc3c(C(=O)OC)c(O)ccc23)C1,inactive,,,,,,
C=CCOC(=O)N1CCc2c(c(=O)oc3c(C(=O)O)c(O)ccc23)C1,inactive,,,,,,
C=CCOC(=O)N1CCc2c(c(=O)oc3c(C=O)c(O)ccc23)C1,,Active,Active,Active,Active,Active,
Cc1cc(=O)oc2c(C=O)c(O)ccc12,,,,,,Active,IC50 [11]: 1.57 µM
CC(=O)N1CCc2c(c(=O)oc3c(C=O)c(O)ccc23)C1,Active,Active,Active,Active,Active,,
C=CCOC(=O)N1CCc2c(c(=O)oc3c(C4OCCCO4)c(O)ccc23)C1,,,,,,Active,Stability [12]: Stable
C=CCOC(=O)N1CCc2c(c(=O)oc3c(C=O)c(OCc4ccccc4)ccc23)C1,,,,,,,IC50 [13]: > 20 µM
